Results from patent US7220414B2, “Degradable polyacetal polymers” (A.P. Pharma, Inc., priority 2000, dated 2007).

System: red blood cell
Assay: red blood cell (RBC) lysis assay
Description: The degradation products were obtained by dissolving polyacetal 22 in phosphate buffered saline (PBS), adjusting the pH to 1–2 by the addition of HCl to allow the polyacetal to degrade, then adding a small amount of NaOH to readjust the pH to 7.4.

Substance: Dextran
- red blood cell (RBC) lysis: did not display RBC lysis
